Series [1] is described as follows: absolute recovery over vacuum-assisted evaporative concentration; higher = better recovery. The settings on record: enrichment method: VEC. The procedure, abridged: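 Standards were spiked into water samples before concentration, after concentration or not at all; volumes were 6 mL influent, 15 mL effluent and 60 mL surface or nanopure water. Spiking levels were 200 ng/L for nanopure and surface water and 1000 ng/L for wastewater, adjusted by class and compound. After evaporation at 55 °C and 20 mbar to about 0.3 mL, samples were brought to 0.4 mL, centrifuged, given internal standards and analysed by LC-HRMS/MS. Absolute recovery equals (response ratio pre − unspiked)/(post − unspiked) × 100, based on averages of ≥ 2 replicates.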

A short description of series [2]: LC retention time (Atlantis T3, 5-95% MeOH gradient, 0.1% formic acid); higher = more retained / less polar. An outline of the steps:
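Retention times refer to reference standards measured by liquid chromatography with high-resolution tandem mass spectrometry. Separation was on an Atlantis T3 C18 column (3 × 150 mm, 3 μm) at 0.3 mL/min with a 5 to 95% methanol gradient over 17.5 min, both solvents carrying 0.1% formic acid. Positive and negative electrospray were run separately on a QExactive Plus, and TraceFinder peak integration (5 ppm tolerance, at least three points per peak) was reviewed by hand.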

Series [3] in a line: absolute recovery over mixed-bed multilayer solid-phase extraction; higher = better recovery. The settings on record: enrichment method: SPE. An outline of the steps: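 Elution from a three-layer mixed-bed cartridge used basic followed by acidic ethyl acetate/methanol, after loading either 1000 mL of unfiltered nanopure water or 100–250 mL of wastewater that had been set to pH 6.5 and glass-fibre filtered. Standards went in before or after extraction, or were left out, at 200 ng/L (water) or 1000 ng/L (wastewater), with class exceptions. Internal standards were added afterwards, and measurement was by liquid chromatography with high-resolution tandem mass spectrometry in both ionisation modes. For absolute recovery, background-corrected response ratios of pre-spiked samples were compared with those of post-spiked samples and averaged over at least two replicates.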

Experimental findings from the supplement of paper PMC6470124 are described below.

With `CC(C)n1c(C=CC(O)CC(O)CC(=O)[O-])c(-c2ccc(F)cc2)c2ccccc21` (centres undefined) [Fluvastatin], the absolute recovery in series [1] (wastewater effluent) is 105%; in series [1] (wastewater influent), 72.3%. For the same molecule, the LC retention time in series [2] is 20.8 min.

With `C[NH+]1CCN(C2=Nc3cc(Cl)ccc3Nc3ccccc32)CC1` [Clozapin], the absolute recovery in series [1] (wastewater effluent) was determined as 102%; in series [1] (wastewater influent), 98%. The same molecule had an LC retention time in series [2] of 14.4 min.

For the molecule `Nc1c(I)c(C(=O)[O-])c(I)c(C(=O)[O-])c1I` [5-Amino-2-4-6-triiodoisophthalic-acid], the LC retention time in series [2] stood at 10.2 min.

Turning to `O=C(CCC[NH+]1CCC(O)(c2ccc(Cl)cc2)CC1)c1ccc(F)cc1` [Haloperidol], the absolute recovery in series [1] (wastewater effluent) was found to be 114%; in series [1] (wastewater influent), 118%. This molecule also returned an LC retention time in series [2] of 15 min.

Molecule `CCC(C)(C)C(=O)OC1CC(C)C=C2C=CC(C)C(CCC3CC(O)CC(=O)O3)C21` (centres undefined) [Simvastatin] displayed an LC retention time in series [2] of 22.9 min.

Take `Cc1c(NC=O)c(=O)n(-c2ccccc2)n1C` [4-Formylaminoantipyrin (=4-FAA)]: the absolute recovery in series [3] (nanopure water) was found to be 101%; in series [3] (surface water) it was 93.6%; in series [3] (wastewater effluent), 90.2%; in series [3] (wastewater influent), 103%. The LC retention time in series [2] is 11.7 min.

For `O=C(c1ccccc1)c1ccc(Cl)cc1` [4-Chlorobenzophenone], the absolute recovery in series [3] (nanopure water) turned out to be 83.1%; in series [3] (surface water), 97.1%; in series [3] (wastewater effluent), 86.1%; in series [3] (wastewater influent) it was 37.3%. In series [2], this molecule came in with an LC retention time of 20.9 min.

The molecule `Nc1ccc2c(S(=O)(=O)[O-])cccc2c1S(=O)(=O)[O-]` [2-amino-1-5-napthalenedisulfonic-acid] showed an LC retention time in series [2] of 4.35 min.

Take `O=C([O-])C(F)(F)C(F)(F)C(F)(F)C(F)(F)C(F)(F)C(F)(F)C(F)(F)F` [PFOA]: the results for the absolute recovery in series [1] (wastewater effluent) and in series [1] (wastewater influent) were 87.3% and 90%, respectively. In addition, the LC retention time in series [2] came to 20 min.

As to `C#CCN1C(=O)COc2cc(F)c(N3C(=O)C4=C(CCCC4)C3=O)cc21` [Flumioxazin], the absolute recovery is 99.7% in series [3] (nanopure water), 77.4% in series [3] (surface water), 91.6% in series [3] (wastewater effluent) and 64% in series [3] (wastewater influent). The same molecule gave an LC retention time in series [2] of 18.8 min.

Molecule `CCc1cccc(CC)c1N(COC)C(=O)CS(=O)(=O)[O-]` [Alachlor-ESA] displayed an absolute recovery in series [1] (wastewater influent) of 106%. Moreover, the LC retention time in series [2] came to 17.2 min.

Take `CCOCN(C(=O)CS(=O)(=O)[O-])c1c(C)cccc1CC` [Acetochlor-ESA]: the absolute recovery in series [1] (wastewater influent) was found to be 108%. The LC retention time in series [2] amounted to 17.2 min.

For the molecule `C[NH2+]CC(O)c1ccc(O)c(O)c1` (centres undefined) [Epinephrine], the absolute recovery in series [3] (nanopure water) came out at 40.2%; in series [3] (surface water), 12.7%; in series [3] (wastewater effluent), 15.9%; in series [3] (wastewater influent) it was 26.6%. The same molecule yielded an LC retention time in series [2] of 3.27 min.

For the molecule `CNC(=O)Oc1cc(C)c(S(C)=O)c(C)c1` (centres undefined) [Methiocarb-sulfoxide], the absolute recovery in series [3] (nanopure water) turned out to be 75.7%; in series [3] (surface water), 83%; in series [3] (wastewater effluent), 77.8%; in series [3] (wastewater influent), 58.2%. This molecule came in with an LC retention time in series [2] of 13.7 min.

For the molecule `N#Cc1nn(-c2c(Cl)cc(C(F)(F)F)cc2Cl)c(N)c1C(F)(F)F` [Fipronil-desulfinyl], in series [3] (nanopure water), the absolute recovery came to 139%. The molecule also yielded an LC retention time in series [2] of 20.2 min.

Regarding `COc1cc(Cc2c[nH+]c(N)nc2N)cc(OC)c1OC` [Trimethoprim], the absolute recovery in series [1] (wastewater effluent) worked out at 107%; in series [1] (wastewater influent), 106%. This molecule registered an LC retention time in series [2] of 10.5 min.

For `[NH3+]C(CO)(CO)CO` [Trometamol], the absolute recovery worked out at 105% in series [1] (wastewater effluent) and 73.2% in series [1] (wastewater influent). Also, the LC retention time in series [2] is 2.85 min.

As to `CNC(=C[N+](=O)[O-])NCCSCc1ccc(C[NH+](C)C)o1` [Ranitidin], the absolute recovery in series [1] (wastewater effluent) stood at 102%; in series [1] (wastewater influent) it was 98.7%. In series [2], this molecule gave an LC retention time of 8.64 min.

With `COc1cc(NC(C)CCC[NH3+])c2ncccc2c1` (centres undefined) [Primaquine], the absolute recovery was 60.5% in series [1] (wastewater effluent) and 37.5% in series [1] (wastewater influent). In addition, the LC retention time in series [2] was 14.4 min.

With `CCCN(CCC)C(=O)SCc1ccccc1` [Prosulfocarb], the figures for the absolute recovery in series [3] (nanopure water), in series [3] (surface water) and in series [3] (wastewater effluent) were 38.9%, 35.1% and 43.2%, respectively. The molecule further showed an LC retention time in series [2] of 11.5 min.

On to `Oc1ccc(C(F)(F)F)cc1` [4-(Trifluoromethyl)phenol], for which the absolute recovery came out at 68.5% in series [3] (nanopure water), 71.8% in series [3] (wastewater effluent) and 95.1% in series [3] (wastewater influent). For the same molecule, in series [2], the LC retention time stood at 18.3 min.

For the molecule `O=C([O-])C[NH+](CCC[NH+](CC(=O)[O-])CC(=O)[O-])CC(=O)[O-]` [1-3-Propylene-diaminotetraacetic-acid], the absolute recovery in series [1] (wastewater effluent) was 85.1%; in series [1] (wastewater influent), 117%. In series [2], this molecule showed an LC retention time of 3.58 min.

With `O=[N+]([O-])c1ccc(C2OC2c2ccc([N+](=O)[O-])cc2S(=O)(=O)[O-])c(S(=O)(=O)[O-])c1` (centres undefined) [1-2-Bis-(4-4-dinitro-2-2-disulfonic acid-phenylethylenoxide], in series [3] (nanopure water), the absolute recovery amounted to 106%. For the same molecule, in series [2], the LC retention time was 19.7 min.

`CC(C)CN(CC(O)C(Cc1ccccc1)NC(=O)OC1COC2OCCC12)S(=O)(=O)c1ccc(N)cc1` (centres undefined) [Darunavir]: the absolute recovery in series [1] (wastewater effluent) is 101%; in series [1] (wastewater influent), 99.7%. Further, in series [2], the LC retention time stood at 18 min.
